This note sets out measurements from US8791123B2, “Substituted pyrazolo[1,5-a]pyrimidine compounds as Trk kinase inhibitors” (Array Biopharma, Inc., priority 2009, dated 2014).

Common to all, as to assay type: biochemical
The target of one assay is Human Tyk2 kinase domain (Homo sapiens (Human), UniProt P29597). The assay is described as follows: Tyk2 Inhibition Assay (Omnia kinase assay). As to conditions: Table 2; for IC50: 500 μM ATP. The method, then: (§1) The assays described in Examples C, D, E and F for the determination of JAK1, JAK2, JAK3 and Tyk2 kinase activity, respectively, utilized the Omnia® Kinase fluorescence peptide substrate-based technology (Invitrogen). […] The reactions were therefore read at excitation 360 nm and emission was measured at 485 nm every 50 seconds for 45 minutes using a PerkinElmer EnVision Multilabel Plate Reader.
Sequence of Human Tyk2 kinase domain (P29597 886-1187): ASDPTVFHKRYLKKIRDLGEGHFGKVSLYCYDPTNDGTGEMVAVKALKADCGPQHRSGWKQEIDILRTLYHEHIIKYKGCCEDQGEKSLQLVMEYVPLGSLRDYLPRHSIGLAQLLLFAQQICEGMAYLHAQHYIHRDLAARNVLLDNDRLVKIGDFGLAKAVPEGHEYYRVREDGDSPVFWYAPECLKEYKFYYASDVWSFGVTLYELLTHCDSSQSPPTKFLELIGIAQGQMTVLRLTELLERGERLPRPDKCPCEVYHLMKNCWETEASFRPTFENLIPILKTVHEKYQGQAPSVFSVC
(§2) The final buffer conditions for each of the JAK1, JAK2, JAK3 and Tyk2 assays were as follows: 25 mM HEPES, pH 7.4, 10 mM MgCl2, 0.01% Triton X-100 and 1 mM DTT.
(§3) Compounds were prepared at 50× the final concentration in DMSO by conducting 3-fold serial dilutions from a 500-μM or 1000-μM intermediate dilution to give a 10-point dosing curve having a high dose of 10 or 20 μM. Two-μL aliquots of these were transferred to a fresh plate for a ten-fold intermediate dilution with assay buffer. Five-μL aliquots of the diluted compounds were then transferred to 20-μL of assay mixtures described in Examples C, D, E and F for a final concentration of DMSO of 2%. A standard or reference compound was typically included on each assay plate to validate that plate. For each plate, percent of control (POC) values were calculated for each well according to the following equation:
(§4) [formula] • where • Xmax=Average Uninhibited Controls • Xmin=Average Background IC50's were estimated from the POC's using a standard 4-parameter logistic model:
(§5) [formula] • where • A=Minimum Y (Bottom Asymptote) • B=Maximum Y (Top Asymptote) • C=EC50 • D=Slope Factor • X=Compound Concentration (nM) • Y=POC
(§6) The IC50 is defined as the concentration of inhibitor at which the POC equals 50 for the fitted curve.
Compounds of Formula I were screened for their ability to inhibit Tyk2 using the general enzyme inhibition assay method, in which the assay mixture contained 500 μM ATP, 8 μM Omnia® Y12 peptide (Catalog # IVGN KPZ3121C; Invitrogen Corporation, Carlsbad, Calif.) and 1 nM Tyk2 in a total volume of 20 μL. Human Tyk2 kinase domain, comprising amino acids 886 to 1187 with 10 additional histidine residues (histidine tag) on the carboxy terminus, was expressed and purified from bacculovirus in-house at Array BioPharma Inc. (Boulder, Colo.). The histidine tag was cleaved after purification using standard conditions.

Assay [1] has as its target TrkA (histidine-tagged recombinant human TrkA, cytoplasmic domain) (Homo sapiens (Human), UniProt P04629). The assay is described as follows: TrkA ELISA Assay. In a few lines: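 ELISA read-out: a peroxidase-linked anti-phosphotyrosine antibody (PY20, 0.2 μg/mL) with TMB substrate, absorbance at 450 nm after acid stop. The plate-bound substrate was poly(Glu,Ala,Tyr; 6:3:1) at 0.025 mg/mL, phosphorylated by the recombinant His-tagged human TrkA cytoplasmic domain in the presence of inhibitors.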
Background: In an ELISA, binding on a coated surface is turned into a signal by an enzyme label.

In assay [2] the target is GST-tagged human Jak3 kinase domain (Homo sapiens (Human), UniProt P52333). The assay is described as follows: Jak3 Inhibition Assay (Omnia kinase assay). As to conditions: Table 2; for IC50: 500 μM ATP. The method, then:
as §1, §2, §3, §4, §5, §6
Compounds of Formula I were screened for their ability to inhibit Jak3 using the general enzyme inhibition assay method, in which the assay mixture contained 500 μM ATP, 10 μM Omnia® Y7 peptide (Catalog # IVGN KNZ3071C, Invitrogen Corporation, Carlsbad, Calif.) and 1.5 nM Jak3 in a total volume of 20 μL. GST-tagged human Jak3 kinase domain comprising amino acids 781-1124 was purchased from Invitrogen Corporation, Carlsbad, Calif. (catalog # IVGN PV3855).

In assay [3] the target is GST-tagged human Jak1 kinase domain (Homo sapiens (Human), UniProt P23458). The assay is described as follows: Jak1 Inhibition Assay (Omnia kinase assay). As to conditions: Table 2; for IC50: 500 μM ATP. The method, then: as §1, §2, §3, §4, §5, §6
Sequence of GST-tagged human Jak1 kinase domain (P23458 866-1154): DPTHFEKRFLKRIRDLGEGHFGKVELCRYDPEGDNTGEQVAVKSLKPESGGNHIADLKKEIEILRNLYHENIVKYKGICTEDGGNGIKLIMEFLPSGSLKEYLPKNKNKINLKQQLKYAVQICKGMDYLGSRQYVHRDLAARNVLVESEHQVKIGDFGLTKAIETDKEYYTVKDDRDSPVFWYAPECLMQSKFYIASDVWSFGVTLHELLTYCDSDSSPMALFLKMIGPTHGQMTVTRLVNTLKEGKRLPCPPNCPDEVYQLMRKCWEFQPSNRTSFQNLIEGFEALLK
Compounds of Formula I were screened for their ability to inhibit Jak1 using the general enzyme inhibition assay method, in which the assay mixture contained 500 μM ATP, 8 μM Omnia® Y12 peptide (Catalog # IVGN KPZ3121C; Invitrogen Corporation, Carlsbad, Calif.) and 5 nM Jak1 in a total volume of 20 μL. […] (catalog # IVGN PV4774).

In a further assay the target is Human Jak2 kinase domain (Homo sapiens (Human), UniProt O60674). Nature of the assay: Jak2 Inhibition Assay (Omnia kinase assay). Conditions: for IC50: 500 μM ATP; for inhibition at 1 µM: 1000 nM test compound.
Sequence of Human Jak2 kinase domain (O60674 808-1132): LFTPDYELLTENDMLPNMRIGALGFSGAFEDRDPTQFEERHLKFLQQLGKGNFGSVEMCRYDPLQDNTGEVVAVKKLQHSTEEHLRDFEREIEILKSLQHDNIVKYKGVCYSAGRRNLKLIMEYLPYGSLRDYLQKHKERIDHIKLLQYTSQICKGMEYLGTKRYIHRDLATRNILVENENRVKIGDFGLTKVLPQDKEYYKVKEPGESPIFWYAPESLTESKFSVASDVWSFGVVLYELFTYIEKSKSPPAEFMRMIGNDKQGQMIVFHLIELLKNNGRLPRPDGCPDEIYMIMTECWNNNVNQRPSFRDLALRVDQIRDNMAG
Setting [4] is: Table 1, ELISA, 500 μM ATP, read-out: TrkA Enzyme IC50.
Setting [5] is: Table 1, >1000 nM when >50% inhibition not observed at 1000 nM, read-out: Jak2 Enzyme IC50.

Molecules are shown by their SMILES. Like-named read-outs stand apart in the source and are kept apart here.

The IC50 is the concentration that gives 50% inhibition. The term inhibition denotes how much of the control response was suppressed.

Sequence of GST-tagged human Jak3 kinase domain (P52333 781-1124): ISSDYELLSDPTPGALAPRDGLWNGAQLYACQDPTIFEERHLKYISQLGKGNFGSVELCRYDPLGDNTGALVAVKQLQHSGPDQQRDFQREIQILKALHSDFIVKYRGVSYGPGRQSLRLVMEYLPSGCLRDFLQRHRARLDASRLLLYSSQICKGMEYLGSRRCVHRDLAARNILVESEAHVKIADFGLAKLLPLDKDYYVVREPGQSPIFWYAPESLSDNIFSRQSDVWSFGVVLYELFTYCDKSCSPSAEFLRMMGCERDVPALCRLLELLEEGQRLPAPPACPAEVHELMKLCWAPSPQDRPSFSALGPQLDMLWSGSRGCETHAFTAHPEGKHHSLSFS
Sequence of TrkA (histidine-tagged recombinant human TrkA, cytoplasmic domain) (P04629 440-796): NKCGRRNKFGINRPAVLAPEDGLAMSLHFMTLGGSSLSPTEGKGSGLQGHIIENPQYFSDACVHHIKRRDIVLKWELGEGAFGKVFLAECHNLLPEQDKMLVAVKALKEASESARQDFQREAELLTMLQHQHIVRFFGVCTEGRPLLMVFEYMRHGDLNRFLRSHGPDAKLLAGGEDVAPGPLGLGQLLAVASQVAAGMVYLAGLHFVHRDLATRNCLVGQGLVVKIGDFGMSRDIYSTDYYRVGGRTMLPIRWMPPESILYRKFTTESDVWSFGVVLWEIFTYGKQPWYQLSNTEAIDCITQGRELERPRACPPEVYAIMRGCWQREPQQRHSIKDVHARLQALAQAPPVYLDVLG

Take `CC(C)NC(=O)c1cnn2ccc(N3CCC[C@@H]3c3cncc(F)c3)nc12` [Example 93, (R)-5-(2-(5-fluoropyridin-3-yl)pyrrolidin-1-yl)-N-isopropylpyrazolo[1,5-a]pyrimidine-3-carboxamide]: the IC50 was greater than 1 µM at Human Tyk2 kinase domain; 0.0051 µM in assay [1] (setting [4]); 0.0051 µM in assay [1] (Table 2, read-out: TrkA IC50); greater than 1 µM in assay [2]; greater than 1 µM in assay [3]; greater than 1 µM on Human Jak2 kinase domain (setting [5]). Besides, at Human Jak2 kinase domain (Table 2, read-out: Jak2 IC50), the IC50 is greater than 1 µM.
Consider `CNC(=O)c1cnn2ccc(N3CCC[C@@H]3c3cncc(F)c3)nc12` [Example 114, (R)-5-(2-(5-fluoropyridin-3-yl)pyrrolidin-1-yl)-N-methylpyrazolo[1,5-a]pyrimidine-3-carboxamide], for which the IC50 against Human Tyk2 kinase domain is greater than 1 µM; in assay [1] (setting [4]), 0.0299 µM; in assay [1] (Table 2, read-out: TrkA IC50) it was 0.0171 µM; in assay [2], greater than 1 µM; in assay [3], greater than 1 µM; at Human Jak2 kinase domain (setting [5]), greater than 1 µM. In addition, on Human Jak2 kinase domain (Table 2, read-out: Jak2 IC50), the IC50 is greater than 1 µM.
As for `C[C@@H](NC(=O)c1cnn2ccc(N3CCC[C@@H]3c3cncc(F)c3)nc12)C1CC1` [Example 123, N-((R)-1-cyclopropylethyl)-5-((R)-2-(5-fluoropyridin-3-yl)pyrrolidin-1-yl)pyrazolo[1,5-a]pyrimidine-3-carboxamide], the IC50 is greater than 1 µM against Human Tyk2 kinase domain; 0.0064 µM in assay [1] (setting [4]); 0.0063 µM in assay [1] (Table 2, read-out: TrkA IC50); greater than 1 µM in assay [2]; greater than 1 µM in assay [3]; greater than 1 µM on Human Jak2 kinase domain (setting [5]). Moreover, the IC50 on Human Jak2 kinase domain (Table 2, read-out: Jak2 IC50) is greater than 1 µM.
Turning to `Cc1ncc(F)cc1[C@H]1CCCN1c1ccn2ncc(C(=O)NC3(C)CC3)c2n1` [Example 190, (R)-5-(2-(5-fluoro-2-methylpyridin-3-yl)pyrrolidin-1-yl)-N-(1-methylcyclopropyl)pyrazolo[1,5-a]pyrimidine-3-carboxamide], the IC50 on Human Tyk2 kinase domain is greater than 1 µM; in assay [1] (setting [4]), 0.0024 µM; in assay [1] (Table 2, read-out: TrkA IC50) it was 0.0024 µM; in assay [2], greater than 1 µM; in assay [3] it was greater than 1 µM; at Human Jak2 kinase domain (setting [5]), greater than 1 µM. Moreover, the IC50 at Human Jak2 kinase domain (Table 2, read-out: Jak2 IC50) was greater than 1 µM.
For `O=C(NC1(C(F)(F)F)CC1)c1cnn2ccc(N3CCC[C@@H]3c3cncc(F)c3)nc12` [Example 98, (R)-5-(2-(5-fluoropyridin-3-yl)pyrrolidin-1-yl)-N-(1-(trifluoromethyl)cyclopropyl)pyrazolo[1,5-a]pyrimidine-3-carboxamide], the IC50 on Human Tyk2 kinase domain is greater than 1 µM; in assay [1] (setting [4]) it was 0.009 µM; in assay [1] (Table 2, read-out: TrkA IC50) it was 0.009 µM; in assay [2] it was greater than 1 µM; in assay [3], greater than 1 µM; at Human Jak2 kinase domain (setting [5]), greater than 1 µM. The IC50 on Human Jak2 kinase domain (Table 2, read-out: Jak2 IC50) was greater than 1 µM.
`CC1(NC(=O)c2cnn3ccc(N4CCC[C@@H]4c4cncc(F)c4)nc23)CC1` [Example 91, (R)-5-(2-(5-fluoropyridin-3-yl)pyrrolidin-1-yl)-N-(1-methylcyclopropyl)pyrazolo[1,5-a]pyrimidine-3-carboxamide]: the IC50 against Human Tyk2 kinase domain is greater than 1 µM; in assay [1] (setting [4]) it was 0.0032 µM; in assay [1] (Table 2, read-out: TrkA IC50), 0.0032 µM; in assay [2], greater than 1 µM; in assay [3], greater than 1 µM; at Human Jak2 kinase domain (setting [5]), greater than 1 µM. The IC50 at Human Jak2 kinase domain (Table 2, read-out: Jak2 IC50) is greater than 1 µM.
On to `COc1ncc(F)cc1[C@H]1CCCN1c1ccn2ncc(C(=O)N[C@H]3CC[C@H](O)CC3)c2n1` [Example 140, 5-((R)-2-(5-fluoro-2-methoxypyridin-3-yl)pyrrolidin-1-yl)-N-((trans)-4-hydroxycyclohexyl)pyrazolo[1,5-a]pyrimidine-3-carboxamide], for which the results for the IC50 in assay [2] and in assay [3] were greater than 1 µM and 0.546 µM, respectively.
Turning to `NC(=O)c1cnn2ccc(N3CCC[C@@H]3c3cc(F)ccc3F)nc12` [Example 30, (R)-5-(2-(2,5-difluorophenyl)pyrrolidin-1-yl)pyrazolo[1,5-a]pyrimidine-3-carboxamide], the IC50 at Human Tyk2 kinase domain is greater than 1 µM; in assay [1] (setting [4]), 0.00195 µM; in assay [1] (Table 2, read-out: TrkA IC50) it was 0.0019 µM; in assay [2], greater than 1 µM; in assay [3], greater than 1 µM; at Human Jak2 kinase domain (setting [5]) it was greater than 1 µM. The IC50 on Human Jak2 kinase domain (Table 2, read-out: Jak2 IC50) is greater than 1 µM.
In the case of `O=C(NC1CC1)c1cnn2ccc(N3CCC[C@@H]3c3cncc(F)c3)nc12` [Example 52, (R)—N-cyclopropyl-5-(2-(5-fluoropyridin-3-yl)pyrrolidin-1-yl)pyrazolo[1,5-a]pyrimidine-3-carboxamide], the IC50 at Human Tyk2 kinase domain is greater than 1 µM; in assay [1] (setting [4]), 0.0074 µM; in assay [1] (Table 2, read-out: TrkA IC50), 0.0074 µM; in assay [2], greater than 1 µM; in assay [3] it was greater than 1 µM; at Human Jak2 kinase domain (setting [5]) it was greater than 1 µM. Also, at Human Jak2 kinase domain (Table 2, read-out: Jak2 IC50), the IC50 is greater than 1 µM.
On to `C[C@H](NC(=O)c1cnn2ccc(N3CCC[C@@H]3c3cncc(F)c3)nc12)C1CC1` [Example 124, N-((S)-1-cyclopropylethyl)-5-((R)-2-(5-fluoropyridin-3-yl)pyrrolidin-1-yl)pyrazolo[1,5-a]pyrimidine-3-carboxamide], for which the IC50 is greater than 1 µM against Human Tyk2 kinase domain; 0.0029 µM in assay [1] (setting [4]); 0.0029 µM in assay [1] (Table 2, read-out: TrkA IC50); greater than 1 µM in assay [2]; greater than 1 µM in assay [3]; 0.759 µM at Human Jak2 kinase domain (setting [5]). The IC50 on Human Jak2 kinase domain (Table 2, read-out: Jak2 IC50) stood at 0.759 µM.
`Cc1ncc(F)cc1[C@H]1CCCN1c1ccn2ncc(C(=O)NC3CC3)c2n1` (stereo in doubt) [Example 181, N-cyclopropyl-5-(2-(5-fluoro-2-methylpyridin-3-yl)pyrrolidin-1-yl)pyrazolo[1,5-a]pyrimidine-3-carboxamide]: the IC50 on Human Tyk2 kinase domain was greater than 1 µM; in assay [1] (setting [4]), 0.0171 µM; in assay [1] (Table 2, read-out: TrkA IC50), 0.0298 µM; in assay [2], greater than 1 µM; in assay [3] it was greater than 1 µM; at Human Jak2 kinase domain (setting [5]), greater than 1 µM. The IC50 at Human Jak2 kinase domain (Table 2, read-out: Jak2 IC50) was greater than 1 µM. Moreover, the inhibition at 1 µM at Human Tyk2 kinase domain (read-out: Tyk2 (% inhibition at 1000 nM), 1000 nM test compound) was 10.7%; in assay [2] (read-out: Jak3 (% inhibition at 1000 nM), 1000 nM test compound) it was 8.9%; in assay [3] (read-out: Jak1 (% inhibition at 1000 nM), 1000 nM test compound), 12.8%; at Human Jak2 kinase domain (read-out: Jak2 (% inhibition at 1000 nM), Table 2) it was 18.1%; on Human Jak2 kinase domain (read-out: Jak2 Enzyme (% inhibition at 1000 nM), Table 1), 5.2%.
Turning to `O=C(NCC1CC1)c1cnn2ccc(N3CCC[C@@H]3c3cncc(F)c3)nc12` [Example 106, (R)-N-(cyclopropylmethyl)-5-(2-(5-fluoropyridin-3-yl)pyrrolidin-1-yl)pyrazolo[1,5-a]pyrimidine-3-carboxamide], the IC50 against Human Tyk2 kinase domain was greater than 1 µM; in assay [1] (setting [4]), 0.0077 µM; in assay [1] (Table 2, read-out: TrkA IC50), 0.0076 µM; in assay [2], greater than 1 µM; in assay [3] it was greater than 1 µM; on Human Jak2 kinase domain (setting [5]) it was greater than 1 µM. In addition, at Human Jak2 kinase domain (Table 2, read-out: Jak2 IC50), the concentration for half-maximal inhibition (IC50) is greater than 1 µM.
